# Measured values as given in EP1106702A1, “High-throughput screening of compounds using electrospray ionization mass spectrometry (ESI-MS)” (AGOURON PHARMACEUTICALS, INC., priority 1999, dated 2001).
# How the values were obtained:
# ss DNA = test: ESI-MS monitoring of ligand binding to the single strands in the duplex mixture; settings: 10 µM duplex 6:7 mixture, increasing ligand concentration
# Procedure: The complementary oligonucleotide strands and corresponding oligonucleotide duplex are not critical to the invention. The duplex may comprise a DNA:DNA duplex, an RNA:RNA duplex or a DNA:RNA duplex. The DNA strands utilized herein are described in detail below. Once desalted, the complementary oligonucleotide strands are added in equimolar mixture in 50 mM ammonium acetate to make a […] duplex stock solution. The duplex stock solution is placed in a 60° C water bath for 10 minutes and then slowly cooled to room temperature. Test solutions are made by adding test compound (dissolved in methanol (MeOH)) to stock solution in a 2:1 water:isopropyl alcohol. Final concentrations of test compound and duplex are preferably 10 µM each. […]
# Once the appropriate samples and solutions are prepared, one may proceed with the ESI-MS procedure. […] The spectra is then analyzed for the presence of bound test ligand. […] In order to ensure statistical accuracy, data are preferably summed, saved, and analyzed over a large numbers of scans, preferably 30 to 50 scans, more preferably 40 scans.
# The oligonucleotides utilized in the examples herein were known to interact with a particular target(s) of interest. […] When the duplex solution was analyzed by ESI-MS, it was possible to see at least three charge stages of the duplex as well as some charge states of the two single strands. […]
# 6:7 duplex [1] = test: ESI-MS monitoring of non-covalent small molecule:oligonucleotide complexes with DNA duplex; format: binding; settings: for ammonium acetate concentration tolerated with binding/complex stable: ammonium acetate varied from 10 mM to 250 mM; for relative binding affinity to 6:7 duplex: 10 mM ammonium acetate
# Procedure: Regarding buffer concentration, the concentrations of ammonium acetate were varied to determine the effects of ionic strength on ligand binding. […] Of the intercalators, proflavin tolerated over 100 mM ammonium acetate with minimal shifting in binding. However, ethidium bromide and methyl green had almost 70% reduction in binding to DNA at only 33 mM ammonium acetate. The reduction in binding of ethidium bromide and methyl green at high salt concentrations is evidence of the electrostatic nature of the first step in binding in the intercalation of these compounds. Proflavin, which is […] at the test pH, should be less affected by an increase in competing counterions.
# The general protocol for preparing the samples utilized in the present invention is as follows. Complementary single-stranded oligonucleotides are desalted, preferably via ammonium acetate precipitation. This DNA desalting procedure involves the following steps. First, the oligonucleotide is dissolved in approximately 100 µL of water. Next, about 500 µL of 10 M ammonium acetate is added. The solution is mixed and allowed to rest for about 5 minutes. From about 600 to about […] of cold ethanol (EtOH) is added and the solution is set in dry ice for about 25 minutes. The solution is then centrifuged for about 20 minutes. The supernatant is removed and saved and the preceding steps are repeated once. Subsequently, 1 ml of a 90:10 solution of EtOH and water are added and the solution is centrifuged for 5 minutes. This step is then repeated twice. The solution is then dried and rehydrated. Finally, OD readings are taken at 260 nanometers to ensure a 1:500 dilution.
# The complementary oligonucleotide strands and corresponding oligonucleotide duplex are not critical to the invention. The duplex may comprise a DNA:DNA duplex, an RNA:RNA duplex or a DNA:RNA duplex. The DNA strands utilized herein are described in detail below. Once desalted, the complementary oligonucleotide strands are added in equimolar mixture in 50 mM ammonium acetate to make a […] duplex stock solution. The duplex stock solution is placed in a 60° C water bath for 10 minutes and then slowly cooled to room temperature. Test solutions are made by adding test compound (dissolved in methanol (MeOH)) to stock solution in a 2:1 water:isopropyl alcohol. Final concentrations of test compound and duplex are preferably 10 µM each. For example, 20 µL of the stock duplex solution is added to 80 µL of a 2:1 solution of water and IPA for a final volume of 100 µL and a final concentration of 10 µM duplex. The test compound is then added to the solution for a final concentration of 10 µM as well. One may subsequently dilute the test solution to test a range of test compound concentrations, from as low as 0.3 µM up to 10 µM.
# Once the appropriate samples and solutions are prepared, one may proceed with the ESI-MS procedure. The general protocol for manual analysis is as follows. First, a 50 µL sample of test solution (comprised of about 30 picomoles of test compound) is drawn into a 100 µL syringe and infused into an LCQ Decca ion trap mass spectrometer using ESI-MS source. The sample is directly infused at a rate of about 1.5 µL/min over a period of approximately 2 minutes. The spectra is then analyzed for the presence of bound test ligand. If the test ligand does bind, the sample is re-run at lower concentrations, from about 0.3 µM up to 1.0 µM. In order to ensure statistical accuracy, data are preferably summed, saved, and analyzed over a large numbers of scans, preferably 30 to 50 scans, more preferably 40 scans.
# The oligonucleotides utilized in the examples herein were known to interact with a particular target(s) of interest. They were provided according to our specifications from TriLink (La Jolla, CA). […] When the duplex solution was analyzed by ESI-MS, it was possible to see at least three charge stages of the duplex as well as some charge states of the two single strands. […]
# 6:7 duplex [2] = test: as above; format: binding; settings: 10 µM duplex and 10 µM proflavin; FT-ICR mass spectrometer
# E.coli DNA helicase II = E.coli DNA helicase II (Escherichia coli, UniProt P03018); settings: intercalation into double-stranded DNA substrate; cited from earlier work
# Chain of E.coli DNA helicase II (P03018 whole entry): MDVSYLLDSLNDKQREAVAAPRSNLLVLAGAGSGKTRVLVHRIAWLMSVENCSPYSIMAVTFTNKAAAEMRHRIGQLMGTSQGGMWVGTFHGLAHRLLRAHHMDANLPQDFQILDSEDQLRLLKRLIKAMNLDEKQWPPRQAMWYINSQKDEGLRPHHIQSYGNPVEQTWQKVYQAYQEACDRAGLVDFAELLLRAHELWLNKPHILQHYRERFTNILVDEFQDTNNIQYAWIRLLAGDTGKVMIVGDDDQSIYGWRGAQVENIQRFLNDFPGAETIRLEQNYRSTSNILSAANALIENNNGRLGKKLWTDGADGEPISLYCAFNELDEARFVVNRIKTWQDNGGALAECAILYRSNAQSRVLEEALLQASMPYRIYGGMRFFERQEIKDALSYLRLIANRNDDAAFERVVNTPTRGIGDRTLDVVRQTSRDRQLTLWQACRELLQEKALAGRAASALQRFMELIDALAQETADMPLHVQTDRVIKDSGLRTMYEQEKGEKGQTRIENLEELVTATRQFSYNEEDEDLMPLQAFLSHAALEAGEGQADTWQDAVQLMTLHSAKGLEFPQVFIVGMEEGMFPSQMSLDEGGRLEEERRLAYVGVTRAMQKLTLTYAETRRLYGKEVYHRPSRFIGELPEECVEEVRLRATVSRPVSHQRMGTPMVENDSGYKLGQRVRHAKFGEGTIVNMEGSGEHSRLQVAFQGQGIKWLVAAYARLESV
# [3] = 33 mM ammonium acetate, 10 µM 6:7 duplex and 10 µM sample
# [4] = 10 µM 6:7 duplex and 10 µM sample
smiles,measurement,setting,value
"CN1CCN(c2ccc3[nH]c(-c4ccc5[nH]c(-c6ccc(O)cc6)nc5c4)nc3c2)CC1 [H33258, bis-benzamide]",binding to single strand,ss DNA,ligand bound to ss DNA was observed in increasing quantities
same,relative amounts of the 1:1 H33258:DNA complex compared with the 2:1 H33258:DNA complex,6:7 duplex [1]; 33 mM ammonium acetate,shifted
same,change in binding (in words),6:7 duplex [1]; [3],appreciable reduction in binding
Cn1cc(NC(=O)c2cc(NC(=O)c3cc(NC=O)cn3C)cn2C)cc1C(=O)NCCC(=N)N [distamycin A],ammonium acetate concentration tolerated with binding/complex stable,6:7 duplex [1]; [4],up to 100 mM
same,observation of ligand:DNA complex,6:7 duplex [1]; 500 mM ammonium acetate in solution,still observed (though at much reduced levels)
CN(C)c1ccc(C(=C2C=CC(=[N+](C)C)C=C2)c2ccc([N+](C)(C)C)cc2)cc1.[Cl-].[Cl-] [methyl green],relative binding affinity to 6:7 duplex,6:7 duplex [1],methyl green > ethidium bromide > proflavin
same,reduction in binding to DNA,6:7 duplex [1]; [3],~70%
Nc1ccc2cc3ccc(N)cc3nc2c1 [proflavin],ammonium acetate concentration tolerated with binding/complex stable,6:7 duplex [1]; [4],over 100 mM
same,relative binding affinity to 6:7 duplex,6:7 duplex [1],methyl green > ethidium bromide > proflavin
same,binding between intercalator and duplex,6:7 duplex [2],binding between intercalator and duplex was observed
O=C1c2c(O)ccc(O)c2C(=O)c2c(NCCNCCO)ccc(NCCNCCO)c21 [mitoxantrone],effect on helicase II ATP hydrolysis and unwinding activity,E.coli DNA helicase II,inhibition of ATP hydrolysis and unwinding activity
